How the values were obtained:
PDE4 = experiment: Inhibition of PDE4 (cytosolic enzyme preparation from U937 line), compared with rolipram; type: biochemical, human; settings: PDE4 enzyme preparation obtained from the U937 line
production of TNFα = experiment: in vivo TNFα model in Wistar rats (LPS-induced); settings: oral administration 30 min before i.p. LPS; plasma 90 min after LPS; male Wistar rats
Description: TNFα is a cytokine which plays a central role in the mechanisms of inflammation. Its production can be induced by an injection of lipopolysaccharide (LPS). It has been shown that the increase in intracellular cAMP, produced in particular by PDE4 inhibitors, decreases the production of TNFα in in vitro and in vivo models. It is thus a matter here of quantifying in vivo the anti-inflammatory potential of the compounds of the invention, administered orally (p.o.) by measuring the inhibition of the production of TNFα in the plasma of rats, these rats having received an intraperitoneal (i.p.) injection of lipopolysaccharide (LPS). The treatment with the compounds of the invention or the vehicle are [sic] administered orally to male Wistar rats, 30 min before the injection of LPS. The rats are sacrificed 90 min after the stimulation with LPS, the blood is collected onto EDTA and the TNFα concentration is measured in each plasma sample. […] References • Chen, Y. L., Le Vraux, V., Giroud, J. P. and Chauvelot-Moachon L. (1994). Anti-tumor necrosis factor properties of non-peptide drugs in acute-phase responses. […] Int. J. Immunopharmacol., 16 (10), 805-816. Model of Eosinophilia in Rats

| SMILES | IC50 (PDE4) | melting point | inhibition of the production of TNFα in the plasma of rats (production of TNFα) |
| --- | --- | --- | --- |
| CCC(C)c1nn(CC)c2c1N=C(c1ccncc1)CNC2=O (racemic) [Example 69, (±)3-sec-Butyl-1-ethyl-5-pyrid-4-yl-6,7-dihydro-1H-pyrazolo[4,3-e][1,4]diazepin-8-one] | 13 nM | 86 to 88.5 °C | excellent activity |
| CCCn1nc(C(C)CC)c2c1C(=O)NCC(c1ccncc1)=N2 (racemic) [Example 71, (±)3-sec-Butyl-1-propyl-5-pyrid-4-yl-6,7-dihydro-1H-pyrazolo[4,3-e][1,4]diazepin-8-one] | 35 nM | 110 °C | excellent activity |
| CCn1nc(C(C)C)c2c1C(=O)NCC(c1ccccc1)=N2 [Example 1, 1-Ethyl-3-isopropyl-5-phenyl-6,7-dihydro-1H-pyrazolo[4,3-e][1,4]diazepin-8-one] | 4.9 nM | 157.2 °C | excellent activity |
| CCn1nc(C(C)C)c2c1C(=NC#N)NCC(c1ccccc1)=N2 [Example 3, 1-Ethyl-3-isopropyl-5-phenyl-6,7-dihydro-1H-pyrazolo[4,3-e][1,4]diazepin-8-ylidenecyanamide] | 0.12 nM | 222 °C | excellent activity |
| CCCn1nc(C(C)C)c2c1C(=O)NCC(c1ccc(C#N)cc1)=N2 [Example 42, 4-(3-Isopropyl-8-oxo-1-propyl-1,6,7,8-tetrahydro-pyrazolo[4,3-e][1,4]diazepin-5-yl)benzonitrile] | 10 nM | – | excellent activity |
| CCn1nc(C(C)(C)C)c2c1C(=O)NCC(c1ccc(C)cc1)=N2 [Example 45, 3-tert-Butyl-1-ethyl-5-p-tolyl-6,7-dihydro-1H-pyrazolo[4,3-e][1,4]diazepin-8-one] | 2.6 nM | – | excellent activity |
| CCn1nc(C(C)(C)C)c2c1C(=O)NCC(c1ccc(C#N)cc1)=N2 [Example 46, 4-(3-tert-Butyl-1-ethyl-8-oxo-1,6,7,8-tetrahydro-pyrazolo[4,3-e][1,4]diazepin-5-yl)benzonitrile] | 0.84 nM | – | excellent activity |

The next lines start with results.

| IC50 (PDE4) | melting point | SMILES | inhibition of the production of TNFα in the plasma of rats (production of TNFα) |
| --- | --- | --- | --- |
| 0.98 nM | 164 °C | CCn1nc(C(C)C)c2c1C(=S)NCC(c1ccccc1)=N2 [Example 2, 1-Ethyl-3-isopropyl-5-phenyl-6,7-dihydro-1H-pyrazolo[4,3-e][1,4]diazepin-8-thione] | excellent activity |
| 420 nM | 178 °C | CCn1nc(C)c2c1C(=O)NCC(c1ccc(OC)cc1)=N2 [Example 6, 1-Ethyl-5-(4-methoxyphenyl)-3-methyl-6,7-dihydro-1H-pyrazolo[4,3-e][1,4]diazepin-8-one] | excellent activity |
| 100 nM | 212 °C | CCn1nc(C)c2c1C(=O)NCC(c1ccc(N)cc1)=N2 [Example 12, 5-(4-Aminophenyl)-1-ethyl-3-methyl-6,7-dihydro-1H-pyrazolo-[4,3-e][1,4]diazepin-8-one] | excellent activity |
| 520 nM | 171 °C | CCCn1nc(C)c2c1C(=O)NCC(c1ccccc1)=N2 [Example 15, 3-Methyl-5-phenyl-1-propyl-6,7-dihydro-1H-pyrazolo-[4,3-e][1,4]diazepin-8-one] | excellent activity |
| 4.9 nM | – | CCCn1nc(C2CCCCC2)c2c1C(=O)NCC(c1ccncc1)=N2 [Example 75, 3-Cyclohexyl-1-propyl-5-pyrid-4-yl-6,7-dihydro-1H-pyrazolo-[4,3-e][1,4]diazepin-8-one] | excellent activity |

Reference: patent US6962912B2, “Substituted pyrazolo[4,3-e]diazepines, pharmaceutical compositions containing them, use as medicinal products and processes for preparing them” (Warner-Lambert LLC, priority 2000, dated 2005)
